Twelve molecules from ChEMBL document CHEMBL5532727, “The Inhibitors of Mucosa-Associated Lymphoid Tissue Lymphoma Translocation Protein 1 (MALT-1) Protease as Potential Treatment of ABC-DLBCL and Similar Diseases” (ACS Med Chem Lett, 2024) can be followed below.

The EC50 is the concentration needed to bring the measured effect to its halfway point.

The structures appear in SMILES notation.

This test in a line: Inhibition of IL-6 production in MALT-1 dependent human OCILY3 cells incubated for 48 hrs by AlphaLISA immunoassay. In kind it is functional, cell-based. Conditions: OCI-Ly3, 48 h. On the technique in general: In Alpha technology, singlet oxygen from a donor bead excites a nearby acceptor bead.
`CO[C@@H](C)c1c(Nc2ccc([C@H](N(C)C(=O)C3CCS(=O)(=O)CC3)C(F)(F)F)cc2)cnc2sc(C)nc12`: the response was half-maximal at 200 nM (EC50).

For `CO[C@H](c1c(Nc2ccc([C@H](N(C)C(=O)C3CCS(=O)(=O)CC3)C(F)(F)F)cc2)cnc2sc(C)nc12)C(F)F`, the EC50 was 140 nM.

For the molecule `Cc1nc2c([C@H](C)C(F)(F)F)c(Nc3ccc([C@H](N(C)C(=O)C4CCS(=O)(=O)CC4)C(F)(F)F)cc3)cnc2s1` (single isomer, unassigned), the EC50 stood at 40 nM.

`CO[C@H](c1c(Nc2ccc([C@@H](C(F)F)N(C)C(=O)C3CCN(C(=O)CO)CC3)cc2)cnc2sc(C)nc12)C(F)(F)F` displayed a half-maximal effective concentration (EC50) of 270 nM.

On to `CO[C@H](c1c(Nc2ccc([C@H](N(C)C(=O)C3CCN(C(C)=O)CC3)C(F)(F)F)cc2)cnc2sc(C)nc12)C(F)F`, for which the EC50 was found to be 1150 nM.

The molecule `CO[C@H](c1c(Nc2ccc([C@@H](C(F)F)N(C)C(=O)C3CCN(C(=O)CO)CC3)cc2)cnc2sc(C)nc12)C(F)F` returned a concentration for a half-maximal effect (EC50) of 440 nM.

`CO[C@@H](C)c1c(Nc2ccc([C@H](N(C)C(=O)C3CCN(C(=O)[C@H](O)CO)CC3)C(F)(F)F)cc2)cnc2sc(C)nc12` displayed an EC50 of 410 nM.

As for `CO[C@H](C)c1c(Nc2ccc([C@H](N(C)C(=O)C3CCS(=O)(=O)CC3)C(F)(F)F)cc2)cnc2sc(C)nc12`, the 50% effective concentration (EC50) was determined as 70 nM.

`CO[C@@H](C)c1c(Nc2ccc([C@H](N(C)C(=O)C3CCS(=O)(=O)CC3)C(F)(F)F)cc2)cnc2sc(C(F)F)nc12` showed an EC50 of 300 nM.

`CO[C@@H](C)c1c(Nc2ccc([C@H](N(C)C(=O)C3CCN(C(=O)CCO)CC3)C(F)(F)F)cc2)cnc2sc(C)nc12` displayed an EC50 of 380 nM.

For the molecule `CO[C@@H](c1c(Nc2ccc([C@H](N(C)C(=O)C3CCS(=O)(=O)CC3)C(F)(F)F)cc2)cnc2sc(C)nc12)C(F)F`, the EC50 came to 340 nM.

Regarding `CO[C@H](C)c1c(Nc2ccc([C@@H](C(F)F)N(C)C(=O)C3CCS(=O)(=O)CC3)cc2)cnc2sc(C)nc12`, the concentration giving a half-maximal response (EC50) amounted to 200 nM.
